Results on 8 compounds are retold here after ChEMBL document CHEMBL4715879, “Total Synthesis of the Antitumor-Antitubercular 2,6'-Bijuglone Natural Product Diospyrin and Its 3,6'-Isomer” (J Nat Prod, 2020).

Molecules are shown by their SMILES.

Data set [1] can be described thus: Inhibition of Mycobacterium tuberculosis DNA gyrase assessed as reduction in DNA supercoiled DNA formation incubated for 30 mins by […] analysis.
A short description of data set [2]: Selectivity index, ratio of IC50 for cytotoxicity against human NFF cells to […] for antiproliferative activity against mouse NS-1 cells.
In data set [3] the test system is NFF. As to the kind of experiment: Cytotoxicity against human NFF cells assessed as reduction in cell viability after 48 hrs by resazurin dye based assay.
Data set [4] in a line: Antiproliferative activity against mouse NS-1 cells assessed as reduction in cell viability after 48 hrs by resazurin dye based assay. It counts as functional. The note with it: NS1, 48 h. A general note: Resazurin is reduced to fluorescent resorufin, in cell work by metabolically active cells.
Data set [5] concerns NFF. As to the kind of experiment: Cytotoxicity against human NFF cells assessed as reduction in cell viability at 1 mM after 48 hrs by resazurin dye based assay relative to control. The note with it: 1000 µM.

For orientation: IC50 means the concentration that gives 50% inhibition. Turning to `Cc1cc(O)c2c(c1)C(=O)C(c1c(C)cc3c(c1O)C(=O)C=CC3=O)=CC2=O` [DIOSPYRIN], the IC50 worked out at 15 µM in data set [1], 5.8 µM in the data set with NFF [3] and 0.8 µM in data set [4]. Further, the “Ratio IC50” value in data set [2] was 10.

As for `Cc1cc(O)c2c(c1)C(=O)C=CC2=O` [RAMENTACEONE], the “Ratio IC50” value in data set [2] is 15. Also, the IC50 amounted to 7.6 µM in the data set with NFF [3] and 0.5 µM in data set [4].

With `Cc1cc2c(c(O)c1-c1c(C)cc(O)c3c1C(=O)C=CC3=O)C(=O)C=CC2=O`, the IC50 in data set [1] was found to be 100 µM.

`Cc1cc(O)c2c(c1)C(=O)C=C(c1c(C)cc(O)c3c1C(=O)C=CC3=O)C2=O` [NEODIOSPYRIN]: in data set [1], the IC50 was 50 µM.

In the case of `O=c1[nH]cc(F)c(=O)[nH]1` [FLUOROURACIL], the “Ratio IC50” value in data set [2] is more than 352. Moreover, the Activity in the data set with NFF [5] came to 13%. Also, the half-maximal inhibitory concentration (IC50) in data set [4] turned out to be 2.8 µM.

For the compound `O=C(O)c1cn(C2CC2)c2cc(N3CCNCC3)c(F)cc2c1=O` [CIPROFLOXACIN], the IC50 in data set [1] was 10 µM.

For the compound `Cc1cc(O)c2c(c1)C(=O)C=C(c1c(C)cc3c(c1O)C(=O)C=CC3=O)C2=O`, the “Ratio IC50” value in data set [2] is reported as 14. Also, the IC50 is 31.8 µM in the data set with NFF [3] and 1.8 µM in data set [4].

Regarding `COc1cc(C)cc2c1C(=O)C=C(c1c(C)cc3c(c1OC)C(=O)C=CC3=O)C2=O`, the “Ratio IC50” value in data set [2] stood at 31. Besides, the IC50 came out at 25.7 µM with NFF [3] and 0.8 µM in data set [4].
